Results taken from PubChem BioAssay AID180 (DTP/NCI, 2004).
Several values for one entry are separate records, joined by “and”; a condition that tells them apart may be missing. Equal values may be shown once.

System: BDF1 mice, Adenocarcinoma 755 s.c., tumor weight T/C
Assay: NCI In Vivo Anticancer Drug Screen. Data for tumor model Adenocarcinoma 755 (subcutaneous) in B6D2F1 (BDF1) mice
Conditions: endpoint: mean tumor weight, higher = larger tumour
Method in brief: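 Values express treated (T) relative to vehicle-dosed control (C) animals, based on survival or tumour size measured after compound treatment of mice bearing a transplanted tumour.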

[1] = dose: 25.0 mg/kg/injection, schedule: Q01DX011 (ip), vehicle: methylcellulose (MC)
[2] = dose: 50.0 mg/kg/injection, schedule: Q01DX011 (ip), vehicle: methylcellulose (MC)

O=C(O)CC(O)(CC(=O)O)C(=O)O.[Ga]
T/C (dose: 0.15 mg/kg/injection, schedule: Q01DX011 (ip), vehicle: carboxymethylcellulose (CMC)): 101 % of control
T/C (dose: 0.3 mg/kg/injection, schedule: Q01DX011 (ip), vehicle: carboxymethylcellulose (CMC)): 67 % of control
T/C (dose: 0.31 mg/kg/injection, schedule: Q01DX011 (ip), vehicle: carboxymethylcellulose (CMC)): 58 % of control
T/C (dose: 0.6 mg/kg/injection, schedule: Q01DX011 (ip), vehicle: carboxymethylcellulose (CMC)): 72 % of control
T/C (dose: 0.62 mg/kg/injection, schedule: Q01DX011 (ip), vehicle: carboxymethylcellulose (CMC)): 55 % of control
T/C (dose: 1.2 mg/kg/injection, schedule: Q01DX011 (ip), vehicle: carboxymethylcellulose (CMC)): 42 % of control and 62 % of control
T/C (dose: 1.25 mg/kg/injection, schedule: Q01DX011 (ip), vehicle: carboxymethylcellulose (CMC)): 25 % of control and 36 % of control
T/C (dose: 20.0 mg/kg/injection, schedule: Q01DX011 (ip), vehicle: carboxymethylcellulose (CMC)): 5 % of control and 18 % of control
T/C (dose: 40.0 mg/kg/injection, schedule: Q01DX011 (ip), vehicle: carboxymethylcellulose (CMC)): 5 % of control
T/C (dose: 80.0 mg/kg/injection, schedule: Q01DX011 (ip), vehicle: carboxymethylcellulose (CMC)): 2 % of control

CC(C)N(C(C)C)C(C)CCNc1c2ccccc2nc2cc(Cl)ccc12 (configuration not stated)
T/C (dose: 3.0 mg/kg/injection, schedule: Q01DX011 (ip), vehicle: methylcellulose (MC)): 64 % of control
T/C (dose: 6.0 mg/kg/injection, schedule: Q01DX011 (ip), vehicle: methylcellulose (MC)): 79 % of control
T/C (dose: 12.0 mg/kg/injection, schedule: Q01DX011 (ip), vehicle: methylcellulose (MC)): 72 % of control

Cc1ccc(C(=O)[O][Hg][CH2]C2COC([CH2][Hg][O]C(=O)c3ccc(C)cc3)CO2)cc1 (configuration not stated)
T/C (dose: 6.25 mg/kg/injection, schedule: Q01DX011 (ip), vehicle: methylcellulose (MC)): 101 % of control
T/C [1]: 61 % of control
T/C [2]: 38 % of control

CCCCn1cnc2c(SCCc3ccccc3)nc(N)nc21
T/C [2]: 37 % of control
T/C (dose: 100.0 mg/kg/injection, schedule: Q01DX011 (ip), vehicle: methylcellulose (MC)): 42 % of control
T/C (dose: 200.0 mg/kg/injection, schedule: Q01DX011 (ip), vehicle: methylcellulose (MC)): 26 % of control

CC(Cc1ccccc1)NC(=O)CCl (configuration not stated)
T/C (dose: 37.0 mg/kg/injection, schedule: Q01DX011 (im), vehicle: other): 68 % of control
T/C (dose: 37.0 mg/kg/injection, schedule: Q01DX011 (oral), vehicle: other): 71 % of control
T/C (dose: 37.0 mg/kg/injection, schedule: Q01DX011 (sc), vehicle: other): 118 % of control
T/C (dose: 50.0 mg/kg/injection, schedule: Q01DX011 (im), vehicle: other): 68 % of control
T/C (dose: 50.0 mg/kg/injection, schedule: Q01DX011 (oral), vehicle: other): 106 % of control
T/C (dose: 50.0 mg/kg/injection, schedule: Q01DX011 (sc), vehicle: other): 73 % of control
T/C (dose: 75.0 mg/kg/injection, schedule: Q01DX011 (im), vehicle: other): 48 % of control
T/C (dose: 75.0 mg/kg/injection, schedule: Q01DX011 (oral), vehicle: other): 87 % of control
T/C (dose: 75.0 mg/kg/injection, schedule: Q01DX011 (sc), vehicle: other): 63 % of control
T/C (dose: 112.0 mg/kg/injection, schedule: Q01DX011 (oral), vehicle: other): 82 % of control

O=C1NC(=O)C(c2ccc(Cl)cc2)(c2ccccc2Cl)N1 (configuration not stated)
T/C (dose: 50.0 mg/kg/injection, schedule: Q01DX011 (ip), vehicle: saline): 91 % of control
T/C (dose: 100.0 mg/kg/injection, schedule: Q01DX011 (ip), vehicle: saline): 82 % of control
T/C (dose: 125.0 mg/kg/injection, schedule: Q01DX011 (ip), vehicle: carboxymethylcellulose (CMC)): 81 % of control
T/C (dose: 200.0 mg/kg/injection, schedule: Q01DX011 (ip), vehicle: saline): 58 % of control and 77 % of control
T/C (dose: 250.0 mg/kg/injection, schedule: Q01DX011 (ip), vehicle: carboxymethylcellulose (CMC)): 28 % of control
T/C (dose: 400.0 mg/kg/injection, schedule: Q01DX011 (ip), vehicle: other): 71 % of control
T/C (dose: 500.0 mg/kg/injection, schedule: Q01DX011 (ip), vehicle: carboxymethylcellulose (CMC)): 81 % of control
T/C (dose: 800.0 mg/kg/injection, schedule: Q01DX011 (ip), vehicle: other): 30 % of control
T/C (dose: 800.0 mg/kg/injection, schedule: Q01DX011 (ip), vehicle: saline): 76 % of control
T/C (dose: 1600.0 mg/kg/injection, schedule: Q01DX011 (ip), vehicle: saline): 107 % of control

CSc1ncnc2c1ncn2C1CCCS1 (configuration not stated)
T/C [1]: 61 % of control
T/C (dose: 75.0 mg/kg/injection, schedule: Q01DX011 (ip), vehicle: methylcellulose (MC)): 66 % of control
T/C (dose: 225.0 mg/kg/injection, schedule: Q01DX011 (ip), vehicle: methylcellulose (MC)): 54 % of control

OCCn1cnc2c(SCc3ccccc3Cl)ncnc21
T/C (dose: 15.0 mg/kg/injection, schedule: Q01DX011 (ip), vehicle: carboxymethylcellulose (CMC)): 77 % of control
T/C [1]: 97 % of control
T/C (dose: 30.0 mg/kg/injection, schedule: Q01DX011 (ip), vehicle: carboxymethylcellulose (CMC)): 49 % of control
T/C (dose: 60.0 mg/kg/injection, schedule: Q01DX011 (ip), vehicle: carboxymethylcellulose (CMC)): 22 % of control
T/C (dose: 150.0 mg/kg/injection, schedule: Q01DX011 (ip), vehicle: methylcellulose (MC)): 5 % of control
